Laboratory results as given in patent US6562848B1, “Bis-amino acid sulfonamides as HIV protease inhibitors” (Bristol-Myers Squibb Company, priority 2001, dated 2003).

CC(C)CN(C[C@@H](O)[C@H](Cc1ccccc1)NC(=O)[C@@H](NC(=O)CNC(=O)C(C)C)C(C)(C)C)S(=O)(=O)c1ccc2c(c1)OCO2 (stereo in doubt)
melting point: 205 to 206 °C
